{"source": "paper PMC13313556", "about": "“Development and characterization of triazole-based WDR5 inhibitors for the treatment of glioblastoma” (JCI Insight, 2026)", "key": {"[1]": {"test": "In vivo intraperitoneal plasma:brain level (PBL) studies", "set-up": "species or system mice", "details": "for Kp: male", "experimental": "In Vivo Intraperitoneal Plasma:Brain Level (PBL) Studies\nCore (RMPC) at the Vanderbilt University Medical Center (VUMC) Metabolic Physiology Shared Resource Core (MPSR). The studies were performed according to guidelines […]\napproved by the Institutional Animal Care and Use Committee (IACUC) of VUMC following the guidance of the Association for Assessment and Accreditation of Laboratory Animal Care (AAALAC). Male CD-1 mice (Charles River Laboratories, Wilmington, MA) were overnight fasted on the evening prior to study. On the morning of study mice were weighed and allowed to acclimate to the room for at least 30 minutes prior to dosing.\nFood was returned 3 hr after intraperitoneal dosing. At time zero IP of test article was given (20% β-HPCD, 1-10 mg/mL with addition of 1N HCl per molar equivalent of test article, N=8 mice, two per timepoint). At 0.5, 1, 3, and 6 h post-dose, mice were placed into a plane of anesthesia using Isoflurane. A terminal blood sample was collected via cardiac puncture followed by immediate euthanasia and brain collection. Brain was washed with cold PBS or Saline, blotted dry on a piece of gauze, weighed, and flash frozen in liquid nitrogen. Whole blood was centrifuged at 5000 x g for 5 minutes and plasma was removed into a fresh tube for storage. All samples were stored at -80 °C until shipment on dry ice for bioanalysis at Q2 Solutions. […]\nconducted at Medicilon Inc. DMPK (CRO, Shanghai) using a similar protocol as above using modified timepoints (5 min, 15 min, 30 min, 1, 3, and 8 h), male ICR mice, and a […]\ncyclodextrin). The blood was taken via submandibular vein or other suitable vein, 0.03 mL/time point. Samples were placed in tubes containing K2-EDTA and stored on ice until centrifuged. The blood samples were centrifuged at 6800 x g for 6 minutes at 2-8°C within 1h after collection and stored frozen at -80°C. After blood sample collection, the brain was removed, rinsed with saline, dried with filter paper, placed into labeled EP tubes (1 tube/tissue/animal/time point, and frozen at -80°C prior to bioanalysis. The analytical […]\nresults were validated using a calibration curve to lower limit of quantification of 2 ng/mL for parent analyte with tolbutamide as an internal standard. […]"}, "DI318 CSCs": {"system": "DI318 CSCs", "test": "7-day CTG viability assay (GI50, cross-titrations, irradiation) in DI318", "format": "cell-based", "details": "Homo sapiens", "experimental": "For GI50 determination, compounds were stamped in technical triplicate, while for synergy cross-titrations dose-response matrices were prepared in technical duplicate. Different CSC lines, grown in suspension as spheroids, were split with Accutase and seeded directly on top of the prestamped compounds (50 μL of NBMc and 700 cells/well). The outer 4 rows (A,B and O,P row IDs) and 4 columns (1,2 and 23,24 column IDs) were filled with 80 μL of PBS to minimize evaporation. Cells were incubated with compounds for 7 days at 37°C/5% CO2 prior to the addition of 25 μL/well Cell-Titer Glo (Promega) and luminescence quantification on a Revvity EnVision plate reader. […] For the cross-titrations of 2 compounds, synergy scores were calculated using the MuSyC webserver ([79]). […]\nantagonist (p53 activator) RG7112 following either 0 Gy or 2 Gy irradiation. Mean values are presented from a single biological replicate conducted in technical triplicate. Follow- […]\nCell viability was quantified as described in the Materials and Methods four days post-irradiation (seven days total). The"}, "5 different CSC models": {"system": "5 different CSC models", "test": "7-day CTG viability / cross-titration, panel of 5 CSC models", "format": "cell-based, human", "details": "Homo sapiens; 7-day assay, 5 CSC models", "experimental": "For GI50 determination, compounds were stamped in technical triplicate, while for synergy cross-titrations dose-response matrices were prepared in technical duplicate. Different CSC lines, grown in suspension as spheroids, were split with Accutase and seeded directly on top of the prestamped compounds (50 μL of NBMc and 700 cells/well). The outer 4 rows (A,B and O,P row IDs) and 4 columns (1,2 and 23,24 column IDs) were filled with 80 μL of PBS to minimize evaporation. Cells were incubated with compounds for 7 days at 37°C/5% CO2 prior to the addition of 25 μL/well Cell-Titer Glo (Promega) and luminescence quantification on a Revvity EnVision plate reader. […] For the cross-titrations of 2 compounds, synergy scores were calculated using the MuSyC webserver ([79])."}, "WDR5": {"target": "WDR5 (Homo sapiens, UniProt P61964)", "test": "WDR5 live cell CETSA in intact L0 CSCs (melting curve, isothermal Kd, washout)", "format": "cell-based", "set-up": "we first used a cellular thermal shift (CETSA) assay in intact L0 CSCs; endogenous in cells; host or cells: L0 patient-derived GBM CSCs", "experimental": "In total, 500,000 L0 CSCs, grown in suspension as spheroids, were split with Accutase and seeded in 1 mL of NBMc into each well of a 24-well dish. […] Cells were harvested by centrifugation (5 minutes, 500g) into SafeLock tubes (Eppendorf), washed once with 400 μL of PBS, and resuspended in 25 μL of CETSA Buffer (PBS + 1X Roche cOmplete Protease Inhibitor Cocktail + 3X Benzonase). […] One DMSO-treated sample was left unheated (representing 100% abundance i.e., fully bound) and 1 DMSO-treated sample was heated to 70°C (representing 0% abundance i.e., fully unbound). After heating, samples were lysed by 6X freeze-thaw cycles in LN2/hot water, rested for 10 minutes at room temperature, and then centrifuged for 30 minutes at > 14,000g at 4°C. 20 μL of the supernatant was transferred to a fresh tube into 5 μL of SDS-PAGE Loading Dye, boiled, and separated on 4%–20% Mini-PROTEAN Precast TGX Gels (Biorad). […] For CETSA washout experiments, a 10 cm dish with 6 × 10^6 to 8 × 10^6 L0 cells was treated for 2 hours with 5 μM compound or DMSO, washed 3 times with 15 mL of PBS (3 min, 400g), and split into 10 × 1 mL of fresh NBMc in a 24-well dish."}, "[2]": {"test": "Plasma protein binding (equilibrium dialysis), rat", "format": "in vitro ADME", "details": "read-out: PPB % fu (r)", "experimental": "both the protein side and buffer side of the membrane after incubation and the parent\ncompound was quantified. […]"}, "[3]": {"details": "CD-1 (C3TD343), ICR (C3TD078), mouse, brain, intraperitoneal, 100 mg/kg, 100 mg/kg i.p., mice, read-out: P:B"}, "[4]": {"details": "DI318 + RAD (2 Gy), read-out: log(GI50) (converted)"}, "[5]": {"details": "[…], DI318, 7-day CTG, pGI50 = −log10[GI50(M)], read-out: pGI50 (converted)"}}, "note": "Where two headings read alike, the source gives them in different places.", "data": [{"smiles": "COc1cc(Cn2nnc3c2CCc2c(-c4cn(C)nc4C(F)(F)F)cc(Cn4ccnc4C)cc2-3)cc(OC)c1", "note": "[C3TD078]", "values": [{"measurement": "Kp", "setting": "[1]; [3]", "result": "< 0.05"}, {"measurement": "GI50", "setting": "DI318 CSCs; [4]", "result": "6.31e-07", "unit": "M"}, {"measurement": "GI50", "setting": "DI318 CSCs; [5]", "result": "2e-06", "unit": "M"}, {"measurement": "GI50", "setting": "5 different CSC models", "result": "1 to 5", "unit": "µM"}, {"measurement": "time remaining bound to WDR5 after washout", "setting": "WDR5; L0 CSCs, 5 μM for 2 hours, then washout", "result": "at least 21 hours"}, {"measurement": "Kd", "setting": "WDR5; L0 CSCs, 2-hour pretreatment, isothermal 70°C", "result": 0.002, "unit": "µM"}]}, {"smiles": "COc1cc(Cn2nnc3c2CCc2c-3cc(Cn3ccnc3C)cc2C2CC2)ccc1F", "note": "[C3TD343]", "values": [{"measurement": "total brain AUC", "setting": "[1]; 100 mg/kg i.p., mice", "result": 2.9, "unit": "µM·h"}, {"measurement": "total brain Cmax", "setting": "[1]; 100 mg/kg i.p., mice", "result": 2.4, "unit": "µM"}, {"measurement": "duration of brain exposure", "setting": "[1]; i.p., mice", "result": "less than 4 hours"}, {"measurement": "Kp", "setting": "[1]; [3]", "result": 0.25}, {"measurement": "GI50", "setting": "DI318 CSCs; [4]", "result": "6.31e-06", "unit": "M"}, {"measurement": "GI50", "setting": "DI318 CSCs; [5]", "result": "5.01e-06", "unit": "M"}, {"measurement": "fraction unbound at […]", "setting": "[2]", "result": 0.027}]}, {"smiles": "COc1cc(CN2CCc3c(cc(Cn4ccn(C)c4=N)cc3-c3ccc(F)cc3C)C2=O)cc(OC)c1", "note": "[C16, reference compound]", "values": [{"measurement": "Cmax brain", "setting": "[1]; 10 mg/kg IP, male mice", "result": 0.102, "unit": "µM"}, {"measurement": "AUC brain", "setting": "[1]; 10 mg/kg IP, male mice, 6 hrs interval", "result": 0.357, "unit": "µM·h"}, {"measurement": "Tmax", "setting": "[1]; CD-1, mouse, brain, 10 mg/kg IP, male mice, read-out: Tmax brain", "result": 30, "unit": "min"}, {"measurement": "Cmax", "setting": "[1]; CD-1, mouse, plasma, 10 mg/kg IP, male mice", "result": 14.2, "unit": "µM"}, {"measurement": "AUC", "setting": "[1]; CD-1, mouse, plasma, 10 mg/kg IP, male mice, 6 hrs interval", "result": 11.9, "unit": "µM·h"}, {"measurement": "Tmax", "setting": "[1]; CD-1, mouse, plasma, 10 mg/kg IP, male mice, read-out: Tmax plasma", "result": 30, "unit": "min"}, {"measurement": "Kp", "setting": "[1]; CD-1, mouse, brain, ip, 10 mg/kg, C16 10 mg/kg IP, male mice, read-out: brain/plasma ratio P:B (AUC)", "result": "< 0.05"}, {"measurement": "GI50", "setting": "DI318 CSCs; [4]", "result": "7.94e-07", "unit": "M"}, {"measurement": "GI50", "setting": "DI318 CSCs; DI318, 0 Gy, read-out: log(GI50) (converted)", "result": "2e-06", "unit": "M"}, {"measurement": "GI50", "setting": "DI318 CSCs; [5]", "result": "1.58e-06", "unit": "M"}, {"measurement": "GI50", "setting": "5 different CSC models", "result": "1 to 5", "unit": "µM"}, {"measurement": "ΔTm at 10 µM", "setting": "WDR5; L0 cells, 10 μM, 2 hours", "result": 35, "unit": "°C"}, {"measurement": "fraction unbound at […]", "setting": "[2]", "result": 0.008}]}]}
